Here are results for one molecule from BindingDB's records for patent US20250197375 (Kineta, 2025).

The structures appear in SMILES notation.

The target of this experiment is T1, 1-phosphatidylinositol 3-phosphate 5-kinase [S696N,L932S,Q995L,T998S,S1033A,Q1183K] (Homo sapiens, UniProt Q9Y2I7, L932S/Q1183K/Q995L/S1033A/S696N/T998S).
T1 construct: gene PIKFYVE
Nature of the experiment: PIKfyve Inhibitory Activity Assay. As to the method: PIKfyve Biochemical Assay. The biochemical PIKFyve inhibition assays were run by Cama Biosciences according to proprietary methodology based on the Promega ADP-Glo™ Kinase assay. […] GST-PIKFYVE was purified by using glutathione sepharose chromatography and used in an ADP-Glo™ Kinase assay (Promega). Reactions were set up by adding the test compound solution, substrate solution, ATP solution and kinase solution, each at 4× final concentrations. Reactions were prepared with assay buffer (50 mM MOPS, 1 mM DTT, pH7.2), mixed, and incubated in black 384 well polystyrene plates for 1 hour at room temperature. ADP-Glo™ reagent was then added for 40 minutes, followed by kinase detection reagent for an additional 40 minutes. The kinase activity was evaluated by detecting relative light units on a luminescence plate reader. Samples were run in duplicate from 10 μM to 3 nM. […] IC50 values were calculated from concentration versus percent inhibition curves by fitting to a four-parameter logistic curve.

T1 sequence (Q9Y2I7 2-2098 S696N/L932S/Q995L/T998S/S1033A/Q1183K limits assumed): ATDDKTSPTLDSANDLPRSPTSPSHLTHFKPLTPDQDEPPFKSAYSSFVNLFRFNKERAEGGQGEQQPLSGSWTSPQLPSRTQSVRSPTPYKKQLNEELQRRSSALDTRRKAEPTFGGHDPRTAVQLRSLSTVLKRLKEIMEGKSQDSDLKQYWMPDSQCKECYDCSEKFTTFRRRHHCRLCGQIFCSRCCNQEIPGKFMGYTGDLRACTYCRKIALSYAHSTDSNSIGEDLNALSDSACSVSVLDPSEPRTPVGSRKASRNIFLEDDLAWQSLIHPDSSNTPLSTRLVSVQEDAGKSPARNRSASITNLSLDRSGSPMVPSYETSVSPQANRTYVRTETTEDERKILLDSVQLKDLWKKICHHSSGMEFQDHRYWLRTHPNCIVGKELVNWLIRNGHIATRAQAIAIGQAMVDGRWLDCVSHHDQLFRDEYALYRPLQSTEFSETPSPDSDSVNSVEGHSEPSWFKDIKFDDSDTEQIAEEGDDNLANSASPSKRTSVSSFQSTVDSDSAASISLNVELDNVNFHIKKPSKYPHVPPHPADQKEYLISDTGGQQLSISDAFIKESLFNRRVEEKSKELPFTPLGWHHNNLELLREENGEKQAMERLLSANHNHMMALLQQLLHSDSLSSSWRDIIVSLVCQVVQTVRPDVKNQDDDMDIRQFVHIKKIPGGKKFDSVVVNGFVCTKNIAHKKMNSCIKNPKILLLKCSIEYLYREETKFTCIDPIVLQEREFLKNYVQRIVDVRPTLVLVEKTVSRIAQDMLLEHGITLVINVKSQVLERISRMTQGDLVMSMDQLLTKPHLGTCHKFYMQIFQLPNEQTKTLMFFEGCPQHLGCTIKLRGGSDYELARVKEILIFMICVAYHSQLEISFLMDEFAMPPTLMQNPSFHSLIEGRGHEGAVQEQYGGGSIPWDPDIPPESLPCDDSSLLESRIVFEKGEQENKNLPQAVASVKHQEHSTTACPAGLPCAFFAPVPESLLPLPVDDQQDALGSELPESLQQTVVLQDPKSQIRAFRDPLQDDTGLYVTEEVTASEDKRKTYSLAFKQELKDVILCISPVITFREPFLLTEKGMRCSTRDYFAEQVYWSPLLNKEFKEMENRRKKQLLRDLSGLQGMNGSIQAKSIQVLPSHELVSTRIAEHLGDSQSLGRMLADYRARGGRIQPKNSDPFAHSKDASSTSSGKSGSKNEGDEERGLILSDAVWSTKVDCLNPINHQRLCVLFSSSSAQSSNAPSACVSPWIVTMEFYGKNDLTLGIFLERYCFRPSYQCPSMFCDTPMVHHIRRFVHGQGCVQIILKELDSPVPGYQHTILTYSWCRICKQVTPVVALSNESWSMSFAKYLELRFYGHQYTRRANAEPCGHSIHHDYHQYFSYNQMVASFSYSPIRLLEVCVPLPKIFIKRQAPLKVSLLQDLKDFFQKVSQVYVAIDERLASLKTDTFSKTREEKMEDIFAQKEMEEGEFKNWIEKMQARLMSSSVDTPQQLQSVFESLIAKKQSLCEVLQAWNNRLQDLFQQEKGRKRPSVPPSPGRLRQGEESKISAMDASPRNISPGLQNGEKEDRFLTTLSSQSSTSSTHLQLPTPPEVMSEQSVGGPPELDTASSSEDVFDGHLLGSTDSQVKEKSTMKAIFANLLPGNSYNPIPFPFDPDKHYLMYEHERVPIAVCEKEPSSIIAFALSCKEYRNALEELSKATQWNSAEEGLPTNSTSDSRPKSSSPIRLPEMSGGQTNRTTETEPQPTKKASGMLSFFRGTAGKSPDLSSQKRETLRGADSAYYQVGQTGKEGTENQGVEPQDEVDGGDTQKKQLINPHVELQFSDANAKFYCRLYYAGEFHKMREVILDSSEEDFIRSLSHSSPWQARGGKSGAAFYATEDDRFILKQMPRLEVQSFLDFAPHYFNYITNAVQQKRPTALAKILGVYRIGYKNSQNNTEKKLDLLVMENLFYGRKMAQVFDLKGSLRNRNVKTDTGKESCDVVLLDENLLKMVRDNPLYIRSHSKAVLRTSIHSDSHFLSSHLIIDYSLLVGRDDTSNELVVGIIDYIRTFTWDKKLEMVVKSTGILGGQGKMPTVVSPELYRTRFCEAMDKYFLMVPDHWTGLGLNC

Consider `CN(C)C(=O)c1c(Nc2ccncc2)nc(N2CCOCC2)nc1-c1cccc(-c2ccn(C)n2)c1` [US20250197375, Compound 66], for which the half-maximal inhibitory concentration (IC50) (as a rule, the concentration that inhibits the measured activity by half) is below 10 nM.
